Test results published in patent US20050118244A1, “Transmittal therapeutic systems containing steroid hormones and propylene glycol monocaprylate” (LTS Lohmann Therapie-System AG, priority 2001, published 2005).

Test: Flux of active ingredient from transdermal therapeutic system in modified Franz diffusion cell
Type: in vitro ADME, human
Conditions: for Cumulative amount of active ingredient after 3 days: human epidermis, 32° C.
Procedure: The measurements were carried out as follows: a modified Franz diffusion cell and, in each case, a transdermal therapeutic system with an effective diffusion area of 4.1 cm^2 was used. The test temperature was 32° C. The flux of active ingredient was measured on an epidermis from human skin. The acceptor used was an aqueous solution of 0.1% hydroxypropyl-β-cyclodextrin+0.1% NaN3; the acceptor volume was 9 ml (volume exchange after 32, 48, 56 and 72 hours).

Row | SMILES | Cumulative amount of active ingredient after 3 days (TTS formula: Progestogen (Org 30659) 5.0 % by weight, Durotak 2287 90.0 %, propylene glycol monocaprylate 5.0 %) | Cumulative amount of active ingredient after 3 days (TTS formula: Progestogen (Org 30659) 5.0 % by weight, Durotak 2287 95.0 %, no penetration promoter) | Cumulative amount of active ingredient after 3 days (TTS formula: Testosterone 2.0 % by weight, Durotak 2287 93.0 %, propylene glycol monocaprylate 5.0 %) | Cumulative amount of active ingredient after 3 days (TTS formula: Testosterone 2.0 % by weight, Durotak 2287 98.0 %, no penetration promoter) | Increase of the flux of active ingredient on use of 5% propylene glycol monocaprylate (TTS with 5% propylene glycol monocaprylate versus TTS without, Examples 1 and 2)
1 | C#C[C@]1(O)C=C[C@H]2[C@@H]3CCC4=CC(=O)CC[C@@H]4[C@H]3C(=C)C[C@@]21C [Progestogen (Org 30659), (17α)-17-hydroxy-11-methylene-19-norpregna-4,15-dien-20-yn-3-one] | 51.3 μg/cm^2 | 44.7 μg/cm^2 | – | – | –
2 | C[C@]12CC[C@H]3[C@@H](CCC4=CC(=O)CC[C@@]43C)[C@@H]1CC[C@@H]2O [Testosterone, testosterone] | – | – | 36.2 μg/cm^2 | 30.2 μg/cm^2 | about 20%
